Patent US6737383B1, “Herbicidal oxadiazolidines” (priority 1999, dated 2004)

Tests used:
crabgrass = assay: Test B pre/postemergence crabgrass; type: in vivo, Digitaria sanguinalis
Procedure, shortened: (§1)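 Response is a visual 0-to-10 score relative to untreated plants, where 0 means no effect and 10 means complete control, taken twelve to sixteen days after application. Treatments went onto soil at planting and onto foliage of 1- to 4-leaf plants, using a surfactant-containing non-phytotoxic solvent.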

bamyardgrass = assay: Test B flood test barnyardgrass; type: in vivo, Echinochloa crus-galli
Procedure, shortened: (§2)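 Flood test on plants grown to the 2-leaf stage; treated plants kept in greenhouse twelve to sixteen days, then visually rated against controls on a 0 (no effect) to 10 (complete control) scale.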

wild oat = assay: Test B pre/postemergence wild oat; type: in vivo, Avena fatua
Procedure, shortened: as §1

cocklebur = assay: Test B pre/postemergence cocklebur; type: in vivo, Xanthium strumarium
Procedure, shortened: as §1

purple nutsedge = assay: Test B pre/postemergence purple nutsedge; type: in vivo, Cyperus rotundus
Procedure, shortened: as §1

corn = assay: Test B pre/postemergence corn; type: in vivo, Zea mays
Procedure, shortened: as §1

rape = assay: Test B pre/postemergence rape; type: in vivo, Brassica napus
Procedure, shortened: as §1

velvetleaf = assay: Test B pre/postemergence velvetleaf; type: in vivo, Abutilon theophrasti
Procedure, shortened: as §1

sugar beet = assay: Test B pre/postemergence sugar beet; type: in vivo, Beta vulgaris
Procedure, shortened: as §1

wheat = assay: Test B pre/postemergence wheat; type: in vivo, Triticum aestivum
Procedure, shortened: as §1

morningglory = assay: Test B pre/postemergence morningglory; type: in vivo, Ipomoea hederacea
Procedure, shortened: as §1

giant foxtail = assay: Test B pre/postemergence giant foxtail; type: in vivo, Setaria faberii
Procedure, shortened: as §1

duck salad = assay: Test B flood test duck salad; type: in vivo, Heteranthera limosa
Procedure, shortened: as §2

soybean = assay: Test B pre/postemergence soybean; type: in vivo, Glycine max
Procedure, shortened: as §1

rice = assay: Test B flood test rice; type: in vivo, Oryza sativa
Procedure, shortened: as §2

pigweed = assay: Test B pre/postemergence pigweed; type: in vivo, Amaranthus retroflexus
Procedure, shortened: as §1

[1] = Postemergence, Rate 250 g/ha, scale 0 to 10
[2] = Postemergence, Rate 500 g/ha, scale of 0 to 10 where 0 is no effect and 10 is complete control
[3] = Preemergence, Rate 62 g/ha, scale of 0 to 10 where 0 is no effect and 10 is complete control
[4] = Preemergence, Rate 125 g/ha, scale of 0 to 10 where 0 is no effect and 10 is complete control
[5] = Preemergence, Rate 250 g/ha, scale 0 to 10, 0 is no effect, 10 is complete control
[6] = Preemergence, Rate 500 g/ha, scale 0 to 10, 0 is no effect, 10 is complete control
[7] = Rate 62 g/ha, Postemergence, scale 0 to 10 (0 no effect, 10 complete control)
[8] = Rate 125 g/ha, Postemergence, scale 0 to 10, 0 is no effect, 10 is complete control
[9] = Rate 62 g/ha, flood test species, Pre-emergence, visual evaluation after twelve to sixteen days
[10] = Rate 125 g/ha, under heading Pre-emergence, flood test species, visual evaluation after twelve to sixteen days
[11] = Rate 250 g/ha, Pre-emergence (flood test species), scale 0 to 10, 0 is no effect, 10 is complete control
[12] = Rate 500 g/ha, Pre-emergence, flood test species, scale 0 to 10 (0 no effect, 10 complete control)

COCC(OC)n1c(=O)on(C(=O)N(c2ccc(F)cc2)C(C)C)c1=O (centres unmarked) [Compound 446]
Crabgrass plant response rating (crabgrass; [1]): 9 | Crabgrass plant response rating (crabgrass; [2]): 9 | Plant response rating, Crabgrass (crabgrass; [3]): 8 | Plant response rating, Crabgrass (crabgrass; [4]): 8 | Crabgrass plant response rating (crabgrass; [5]): 9 | Crabgrass plant response rating (crabgrass; [6]): 9 | Crabgrass plant response rating (crabgrass; [7]): 5 | Crabgrass plant response rating (crabgrass; [8]): 9 | Plant response rating, Barnyardgrass (0 to 10 scale, 0 is no effect, 10 is complete control) (bamyardgrass; [9]): 0 | Barnyardgrass plant response rating (0 to 10 scale, 0 is no effect, 10 is complete control) (bamyardgrass; [10]): 0 | Barnyardgrass plant response rating (bamyardgrass; [11]): 0 | Barnyardgrass plant response rating (bamyardgrass; [12]): 0 | Wild oats plant response rating (wild oat; [1]): 3 | Wild oats plant response rating (wild oat; [2]): 3 | Plant response rating, Wild oats (wild oat; [3]): 0 | Plant response rating, Wild oats (wild oat; [4]): 5 | Wild oats plant response rating (wild oat; [5]): 8 | Wild oats plant response rating (wild oat; [6]): 10 | Wild oats plant response rating (wild oat; [7]): 0 | Wild oats plant response rating (wild oat; [8]): 0 | Cocklebur plant response rating (cocklebur; [1]): 0 | Cocklebur plant response rating (cocklebur; [2]): 0 | Plant response rating, Cocklebur (cocklebur; [3]): 0 | Plant response rating, Cocklebur (cocklebur; [4]): 0 | Cocklebur plant response rating (cocklebur; [5]): 0 | Cocklebur plant response rating (cocklebur; [6]): 0 | Cocklebur plant response rating (cocklebur; [7]): 0 | Cocklebur plant response rating (cocklebur; [8]): 0 | Nutsedge plant response rating (purple nutsedge; [1]): 0 | Nutsedge plant response rating (purple nutsedge; [2]): 0 | Plant response rating, Nutsedge (purple nutsedge; [3]): 0 | Plant response rating, Nutsedge (purple nutsedge; [4]): 0 | Nutsedge plant response rating (purple nutsedge; [5]): 0 | Nutsedge plant response rating (purple nutsedge; [6]): 0 | Nutsedge plant response rating (purple nutsedge; [7]): 0 | Nutsedge plant response rating (purple nutsedge; [8]): 0 | Corn plant response rating (corn; [1]): 0 | Corn plant response rating (corn; [2]): 5 | Plant response rating, Corn (corn; [3]): 0 | Plant response rating, Corn (corn; [4]): 0 | Corn plant response rating (corn; [5]): 2 | Corn plant response rating (corn; [6]): 6 | Corn plant response rating (corn; [7]): 0 | Corn plant response rating (corn; [8]): 0 | Rape plant response rating (rape; [1]): 0 | Rape plant response rating (rape; [2]): 0 | Plant response rating, Rape (rape; [3]): 0 | Plant response rating, Rape (rape; [4]): 0 | Rape plant response rating (rape; [5]): 8 | Rape plant response rating (rape; [6]): 10 | Rape plant response rating (rape; [7]): 0 | Rape plant response rating (rape; [8]): 0 | Velvetleaf plant response rating (velvetleaf; [1]): 2 | Velvetleaf plant response rating (velvetleaf; [2]): 3 | Plant response rating, Velvetleaf (velvetleaf; [3]): 0 | Plant response rating, Velvetleaf (velvetleaf; [4]): 3 | Velvetleaf plant response rating (velvetleaf; [5]): 7 | Velvetleaf plant response rating (velvetleaf; [6]): 10 | Velvetleaf plant response rating (velvetleaf; [7]): 0 | Velvetleaf plant response rating (velvetleaf; [8]): 0 | Sugarbeets plant response rating (sugar beet; [1]): 0 | Sugarbeets plant response rating (sugar beet; [2]): 0 | Plant response rating, Sugarbeets (sugar beet; [3]): 0 | Plant response rating, Sugarbeets (sugar beet; [4]): 4 | Sugarbeets plant response rating (sugar beet; [5]): 6 | Sugarbeets plant response rating (sugar beet; [6]): 8 | Sugarbeets plant response rating (sugar beet; [7]): 0 | Sugarbeets plant response rating (sugar beet; [8]): 0 | Wheat plant response rating (wheat; [1]): 3 | Wheat plant response rating (wheat; [2]): 3 | Plant response rating, Wheat (wheat; [3]): 0 | Plant response rating, Wheat (wheat; [4]): 2 | Wheat plant response rating (wheat; [5]): 3 | Wheat plant response rating (wheat; [6]): 7 | Wheat plant response rating (wheat; [7]): 0 | Wheat plant response rating (wheat; [8]): 0 | Morningglory plant response rating (morningglory; [1]): 3 | Morningglory plant response rating (morningglory; [2]): 3 | Plant response rating, Morningglory (morningglory; [3]): 0 | Plant response rating, Morningglory (morningglory; [4]): 0 | Morningglory plant response rating (morningglory; [5]): 0 | Morningglory plant response rating (morningglory; [6]): 9 | Morningglory plant response rating (morningglory; [7]): 2 | Morningglory plant response rating (morningglory; [8]): 2 | Giant foxtail plant response rating (giant foxtail; [1]): 9 | Giant foxtail plant response rating (giant foxtail; [2]): 9 | Plant response rating, Giant foxtail (giant foxtail; [3]): 9 | Plant response rating, Giant foxtail (giant foxtail; [4]): 10 | Giant foxtail plant response rating (giant foxtail; [5]): 10 | Giant foxtail plant response rating (giant foxtail; [6]): 10 | Giant foxtail plant response rating (giant foxtail; [7]): 6 | Giant foxtail plant response rating (giant foxtail; [8]): 9 | Plant response rating, Ducksalad (0 to 10 scale, 0 is no effect, 10 is complete control) (duck salad; [9]): 0 | Ducksalad plant response rating (0 to 10 scale, 0 is no effect, 10 is complete control) (duck salad; [10]): 0 | Ducksalad plant response rating (duck salad; [11]): 0 | Ducksalad plant response rating (duck salad; [12]): 0 | Soybean plant response rating (soybean; [1]): 4 | Soybean plant response rating (soybean; [2]): 4 | Plant response rating, Soybean (soybean; [3]): 0 | Plant response rating, Soybean (soybean; [4]): 0 | Soybean plant response rating (soybean; [5]): 2 | Soybean plant response rating (soybean; [6]): 2 | Soybean plant response rating (soybean; [7]): 1 | Soybean plant response rating (soybean; [8]): 2 | Plant response rating, Rice (0 to 10 scale, 0 is no effect, 10 is complete control) (rice; [9]): 0 | Rice plant response rating (0 to 10 scale, 0 is no effect, 10 is complete control) (rice; [10]): 0 | Rice plant response rating (rice; [11]): 0 | Rice plant response rating (rice; [12]): 0 | Redroot pigweed plant response rating (pigweed; [1]): 0 | Redroot pigweed plant response rating (pigweed; [2]): 0 | Plant response rating, Redroot pigweed (pigweed; [3]): 6 | Plant response rating, Redroot pigweed (pigweed; [4]): 10 | Redroot pigweed plant response rating (pigweed; [5]): 10 | Redroot pigweed plant response rating (pigweed; [6]): 10 | Redroot pigweed plant response rating (pigweed; [7]): 0 | Redroot pigweed plant response rating (pigweed; [8]): 0
